According to patent publication US8952024B2, “Herbicidal pyrimidone derivatives” (E I du Pont de Nemours and Company, priority 2009, dated 2015):

Assays:
Assay in all cases: Test B pre-/postemergence plant response
Format in all cases: in vivo
[1] = tested on: Surinam grass (Brachiaria decumbens)
Method in brief: (§1)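 Compound in solvent + surfactant applied pre-em (loam/sand) or post-em (plants 2–18 cm, peat medium); greenhouse hold 13–15 days; visual 0–100 control score.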

[2] = tested on: galium (catchweed bedstraw, Galium aparine); details: Preemergence
Method in brief: as §1

[3] = tested on: pigweed (Amaranthus retroflexus)
Method in brief: as §1

[4] = tested on: corn (Zea mays)
Method in brief: as §1

[5] = tested on: woolly cupgrass (Eriochloa villosa)
Method in brief: as §1

[6] = tested on: Italian ryegrass (Lolium multiflorum)
Method in brief: as §1

[7] = tested on: large crabgrass (Digitaria sanguinalis)
Method in brief: as §1

[8] = tested on: goosegrass (Eleusine indica)
Method in brief: as §1

[9] = tested on: sunflower (common oilseed sunflower, Helianthus annuus); details: Preemergence
Method in brief: as §1

[10] = tested on: lambsquarters (Chenopodium album)
Method in brief: as §1

[11] = tested on: nightshade (eastern black nightshade, Solanum ptycanthum); details: Preemergence
Method in brief: as §1

[12] = 31 g ai/ha, postemergence, scale 0 to 100, 0 is no effect, 100 is complete control
[13] = 250 g ai/ha, Preemergence, 0 to 100 scale
[14] = Postemergence, 62 g ai/ha, scale 0 (no effect) to 100 (complete control), 13 to 15 days
[15] = Postemergence, 125 g ai/ha, visual rating after 13 to 15 days, scale 0 (no effect) to 100 (complete control)
[16] = Postemergence, 250 g ai/ha, scale 0 to 100 (0 no effect, 100 complete control)
[17] = Preemergence, 31 g ai/ha, scale 0 to 100 (0 no effect, 100 complete control)
[18] = Preemergence, 62 g ai/ha, scale 0 to 100, 0 no effect, 100 complete control
[19] = Preemergence, 125 g ai/ha, scale 0 to 100, 0 no effect, 100 complete control
[20] = 31 g ai/ha, scale 0 to 100 (0 no effect, 100 complete control)
[21] = 62 g ai/ha, scale 0 to 100, 0 no effect, 100 complete control
[22] = 125 g ai/ha, scale 0 to 100, 0 no effect, 100 complete control
[23] = Postemergence, 31 g ai/ha, 0 to 100 scale (0 no effect, 100 complete control)
[24] = Postemergence, 125 g ai/ha, scale 0 (no effect) to 100 (complete control), 13 to 15 days
[25] = Postemergence, 250 g ai/ha, scale 0 to 100 (0 no effect, 100 complete control), 13 to 15 days
[26] = Postemergence, 62 g ai/ha, scale 0 to 100 (0 no effect, 100 complete control)
[27] = Preemergence, 250 g ai/ha, 0 to 100 scale

Cc1ccc(Cl)cc1-n1c(-c2ccccc2)ncc(C(=O)C2=C(O)CCCC2=O)c1=O [Compound 52]
10: Plant response rating, Surinam Grass [1, 17] | Plant response rating, Cupgrass, Woolly [5, 18] | Plant response rating, Sunflower [9, 20] | Plant response rating, Sunflower [9, 21]
40: Plant response rating, Ryegrass, Italian [6, 12]
0: Plant response rating, Galium [2, 20] | Plant response rating, Galium [2, 21] | Plant response rating, Corn [4, 13] | Plant response rating, Corn [4, 17] | Plant response rating, Corn [4, 18] | Plant response rating, Corn [4, 19] | Plant response rating, Cupgrass, Woolly [5, 17] | Plant response rating, Ryegrass, Italian [6, 13] | Plant response rating, Ryegrass, Italian [6, 17] | Plant response rating, Ryegrass, Italian [6, 18] | Plant response rating, Ryegrass, Italian [6, 19]
45: Plant response rating, Corn [4, 14] | Plant response rating, Ryegrass, Italian [6, 14]
65: Plant response rating, Corn [4, 15] | Plant response rating, Cupgrass, Woolly [5, 19]
60: Plant response rating, Ryegrass, Italian [6, 16] | Plant response rating, Crabgrass, Large [7, 17]
80: Plant response rating, Corn [4, 16] | Plant response rating, Cupgrass, Woolly [5, 13] | Plant response rating, Goosegrass [8, 14]
55: Plant response rating, Ryegrass, Italian [6, 15]
85: Plant response rating, Surinam Grass [1, 14] | Plant response rating, Pigweed [3, 12] | Plant response rating, Cupgrass, Woolly [5, 15] | Plant response rating, Crabgrass, Large [7, 12] | Plant response rating, Goosegrass [8, 15] | Plant response rating, Goosegrass [8, 16] | Plant response rating, Lambsquarters [10, 12] | Plant response rating, Lambsquarters [10, 14]
100: Plant response rating, Pigweed [3, 13] | Plant response rating, Pigweed [3, 18] | Plant response rating, Pigweed [3, 19] | Plant response rating, Crabgrass, Large [7, 13] | Plant response rating, Crabgrass, Large [7, 19] | Plant response rating, Goosegrass [8, 13] | Plant response rating, Goosegrass [8, 18] | Plant response rating, Goosegrass [8, 19] | Plant response rating, Lambsquarters [10, 13] | Plant response rating, Lambsquarters [10, 18] | Plant response rating, Lambsquarters [10, 19] | Plant response rating, Nightshade ([11]; 250 g ai/ha, 0 to 100 scale)
98: Plant response rating, Surinam Grass [1, 13] | Plant response rating, Surinam Grass [1, 16] | Plant response rating, Pigweed [3, 16] | Plant response rating, Crabgrass, Large [7, 16] | Plant response rating, Crabgrass, Large [7, 18] | Plant response rating, Goosegrass [8, 17] | Plant response rating, Lambsquarters [10, 17] | Plant response rating, Nightshade [11, 22]
70: Plant response rating, Galium [2, 22] | Plant response rating, Cupgrass, Woolly [5, 12] | Plant response rating, Sunflower [9, 22]
95: Plant response rating, Surinam Grass [1, 19] | Plant response rating, Galium ([2]; 250 g ai/ha, 0 to 100 scale) | Plant response rating, Pigweed [3, 15] | Plant response rating, Cupgrass, Woolly [5, 16] | Plant response rating, Lambsquarters [10, 16] | Plant response rating, Nightshade [11, 21]
75: Plant response rating, Surinam Grass [1, 12] | Plant response rating, Cupgrass, Woolly [5, 14] | Plant response rating, Goosegrass [8, 12] | Plant response rating, Sunflower ([9]; 250 g ai/ha, 0 to 100 scale)
90: Plant response rating, Surinam Grass [1, 15] | Plant response rating, Pigweed [3, 14] | Plant response rating, Pigweed [3, 17] | Plant response rating, Crabgrass, Large [7, 14] | Plant response rating, Crabgrass, Large [7, 15] | Plant response rating, Lambsquarters [10, 15] | Plant response rating, Nightshade [11, 20]
30: Plant response rating, Corn [4, 12]
25: Plant response rating, Surinam Grass [1, 18]

COCCCn1c(-c2cc(F)cc(F)c2)ncc(C(=O)C2=C(O)C3CCC(C3)C2=O)c1=O (centres unmarked) [Compound 244]
35: Plant response rating, Ryegrass, Italian [6, 23]
25: Plant response rating, Corn [4, 18]
98: Plant response rating, Galium [2, 22] | Galium plant response rating ([2]; 250 g ai/ha, 0 to 100 scale) | Plant response rating, Crabgrass, Large [7, 17] | Plant response rating, Goosegrass [8, 24] | Plant response rating, Goosegrass [8, 25] | Plant response rating, Goosegrass [8, 17] | Plant response rating, Nightshade [11, 20]
100: Plant response rating, Surinam Grass [1, 24] | Plant response rating, Surinam Grass [1, 25] | Plant response rating, Surinam Grass [1, 18] | Plant response rating, Surinam Grass [1, 19] | Surinam Grass plant response rating [1, 27] | Plant response rating, Pigweed [3, 24] | Plant response rating, Pigweed [3, 25] | Plant response rating, Pigweed [3, 26] | Plant response rating, Pigweed [3, 17] | Plant response rating, Pigweed [3, 18] | Plant response rating, Pigweed [3, 19] | Pigweed plant response rating [3, 27] | Plant response rating, Corn [4, 25] | Plant response rating, Cupgrass, Woolly [5, 23] | Plant response rating, Cupgrass, Woolly [5, 24] | Plant response rating, Cupgrass, Woolly [5, 25] | Plant response rating, Cupgrass, Woolly [5, 26] | Cupgrass, Woolly plant response rating [5, 27] | Plant response rating, Crabgrass, Large [7, 24] | Plant response rating, Crabgrass, Large [7, 25] | Plant response rating, Crabgrass, Large [7, 26] | Plant response rating, Crabgrass, Large [7, 18] | Plant response rating, Crabgrass, Large [7, 19] | Crabgrass, Large plant response rating [7, 27] | Plant response rating, Goosegrass [8, 18] | Plant response rating, Goosegrass [8, 19] | Goosegrass plant response rating [8, 27] | Sunflower plant response rating ([9]; 250 g ai/ha, 0 to 100 scale) | Plant response rating, Lambsquarters [10, 23] | Plant response rating, Lambsquarters [10, 24] | Plant response rating, Lambsquarters [10, 25] | Plant response rating, Lambsquarters [10, 26] | Plant response rating, Lambsquarters [10, 17] | Plant response rating, Lambsquarters [10, 18] | Plant response rating, Lambsquarters [10, 19] | Lambsquarters plant response rating [10, 27] | Plant response rating, Nightshade [11, 21] | Plant response rating, Nightshade [11, 22] | Nightshade plant response rating ([11]; 250 g ai/ha, 0 to 100 scale)
55: Plant response rating, Galium [2, 20] | Plant response rating, Cupgrass, Woolly [5, 18]
75: Plant response rating, Surinam Grass [1, 17]
85: Plant response rating, Corn [4, 23] | Corn plant response rating [4, 27] | Plant response rating, Goosegrass [8, 23] | Plant response rating, Sunflower [9, 22]
95: Plant response rating, Surinam Grass [1, 26] | Plant response rating, Pigweed [3, 23] | Plant response rating, Corn [4, 24] | Plant response rating, Cupgrass, Woolly [5, 19] | Plant response rating, Ryegrass, Italian [6, 25] | Plant response rating, Goosegrass [8, 26]
0: Plant response rating, Ryegrass, Italian [6, 17] | Plant response rating, Ryegrass, Italian [6, 18]
45: Plant response rating, Cupgrass, Woolly [5, 17] | Ryegrass, Italian plant response rating [6, 27]
90: Plant response rating, Surinam Grass [1, 23] | Plant response rating, Corn [4, 26]
80: Plant response rating, Ryegrass, Italian [6, 24] | Plant response rating, Crabgrass, Large [7, 23] | Plant response rating, Sunflower [9, 20] | Plant response rating, Sunflower [9, 21]
5: Plant response rating, Corn [4, 17] | Plant response rating, Ryegrass, Italian [6, 19]
60: Plant response rating, Corn [4, 19] | Plant response rating, Ryegrass, Italian [6, 26]
65: Plant response rating, Galium [2, 21]
